Measurements reported in patent US20220409696A1, “Heparin-Associated Polypeptides and Uses Thereof” (Juvena Therapeutics, Inc., priority 2021, published 2022).

Tests used:
[1] = Backbone cleavage on expression from CHO cells (reducing SDS-PAGE, Western blot)
Method: The amino acid backbone of IGF2 is cleaved when expressed from Chinese Hamster Ovary (CHO) cells (FIG. 13A) as visualized on a reducing SDS-PAGE and Western blot (FIG. 13B). The CHO cells were grown in a 37° C. incubator with a humidified atmosphere of 8% CO2 on an orbital shaker platform with a shaking speed 125 rpm to reach 4E6 cells/mL, followed by transferring the calculated volume of cells to fresh, pre-warmed ExpiCHO™ Expression Medium in a shake flask. Incubated flasks in a 37° C. incubator with a humidified atmosphere of 8% CO2 shook on an orbital shaker platform until cultures reached a density of 4×106-6×10^6 viable cells/mL. After mixing each plasmid with 100 ul SFM in a microtube; ExpiFectamine (8 ul×10.5=84 ul) with OptiPro medium (92 ul×10.5=966 ul) in a microtube; adding 100 ul into the plasmid tube and mix by pipetting; After 5 min, add 200 ul into each well and swirl to mix. mix enhancer (15×10.2=153 ul) with feed (600×10.2=6.12 ml), add 615 ul into each well. Culture supernatant collected at intervals was spun down at low speed and high speed, then frozen at −80 deg. Aliquots were analyzed for protein concentration by nanodrop, and then an equivalent amount loaded onto 4-12% SDS-PAGE gels for molecular weight distribution analysis. […]

DM1 human myoblast cells = experiment: Proliferation (EdU) of DM1 human myoblast; type: cell-based; conditions: 72 h for proliferation
Method: FIG. 7A Bar graph of % EdU+ human myoblast (person) and FIG. 7B % area MyHC in response to IGF2. Myoblast were cultured 72 h for proliferation and 96 h for fusion in the presence of indicated factor. Mean∓S.D. Mean∓SD. Significant p-values (EdU: Vehicle˜IGF2: 6.8E-3, % eMyHC Area: Vehicle˜IGF2: 1.9E-4) (*p<0.05 by Students Two-Tailed T-test, n=3−6).
IGF2 was tested individually for its ability to promote proliferation and/or fusion of human muscle progenitor cells from an individual with myotonic dystrophy type 1 (hMD)—a muscular dystrophy caused by mutations in the DMPK1 gene. […] After 72 or 96 hours, cells were pulsed for 2-5 hours with EdU (30 uM), ethanol fixed, stained with Hoescht 3342, immunostained for proliferation—as measured by the percent of cells staining positive for EdU (% EdU)-, and immunostained for differentiation—as measured by the increase in cellular area staining positive for embryonic myosin heavy chain (% eMyHC) relative to the negative controls, which received media and vehicle only. Wells were imaged on a Keyence BZ-100 at 4×, the images quantified in Cell Profiler, and the statistics were computed in R. Additionally, RNA was extracted from myoblast and select transcript abundances quantified by qPCR. […]

DM1 human myoblast = experiment: Gene expression fold change in DM1 human myoblast; type: cell-based; conditions: IGF2 200 ng/mL
Method: Myoblasts were cultured 48 h in the presence of factors (BMP7 50 ng/mL, Butyrate 100 nM, IGF2 200 ng/mL).
Myoblasts were cultured 96 h in the presence of factors (IGF2 200 ng/mL). […] Myoblasts were cultured 48 h in the presence of factors (IGF2 200 ng/mL).
RNA was isolated from each well (RNeasy Mini Kit, Qiagen) and cDNA was obtained by reverse-transcription (High Capacity Reverse Transcription Kit, Thermo Fisher Scientific). Real-time quantitative PCR was performed using QuantStudio3 (Thermo Fisher).
IGF2 was tested individually for its ability to promote proliferation and/or fusion of human muscle progenitor cells from an individual with myotonic dystrophy type 1 (hMD)—a muscular dystrophy caused by mutations in the DMPK1 gene. The effect of IGF2 on myogenic activity was assayed in biological triplicate across a range of concentrations centered around expected physiological levels by adding each factor to hMD myoblasts for 72 hours with daily media changes (DMEM+2% horse serum) and a second pulse of factors at the first media change. After 72 or 96 hours, cells were pulsed for 2-5 hours with EdU (30 uM), ethanol fixed, stained with Hoescht 3342, immunostained for proliferation—as measured by the percent of cells staining positive for EdU (% EdU)-, and immunostained for differentiation—as measured by the increase in cellular area staining positive for embryonic myosin heavy chain (% eMyHC) relative to the negative controls, which received media and vehicle only. Wells were imaged on a Keyence BZ-100 at 4×, the images quantified in Cell Profiler, and the statistics were computed in R. Additionally, RNA was extracted from myoblast and select transcript abundances quantified by qPCR.

[2] = Pharmacokinetics after intravenous injection in mice; type: in vivo; conditions: mice 10-12 weeks old, dose 10 mg/kg (HSA-IGF2R61A), 600 ug/kg (IGF2), Non-Compartment Analysis
Method: Murine pharmacokinetics (PK) represents the absorption, distribution, metabolism, and elimination of drugs from the body. The pharmacokinetic profile of the therapeutic polypeptides were determined in mice (10-12 weeks old). Mice were fed ad libitum and housed under controlled conditions of lighting (12-hour light/12-hour dark) and temperature (22-24° C.). Mice were allowed to acclimate for 3 days prior to the initiation of the experiment. Intravenous (IV) injection in 10-12 weeks old mice. Engineered mitogenic polypeptides concentrations in the samples were measured by ELISA. Various pharmacokinetics will be calculated as well as the absorption/elimination dynamics following different routes of administration.

[3] = 48 h, BMP7 50 ng/mL, Butyrate 100 nM

IGF2: Human IGF2 polypeptide, amino acids 25 to 91 of SEQ ID NO. 32 (i.e. SEQ ID NO. 29)
cleavage of the amino acid backbone when expressed from CHO cells [1]: cleaved | EdU FC (DM1 human myoblast cells): 2.18 | ATP1B1 expression fold change compared to FM (vehicle) (DM1 human myoblast; 48 h): 3.018 | MYF5 myogenic gene expression fold change compared to FM (vehicle) (DM1 human myoblast; [3]): 0.730 | MYODI myogenic gene expression fold change compared to FM (vehicle) (DM1 human myoblast; [3]): 1.252 | MYOG myogenic gene expression fold change compared to FM (vehicle) (DM1 human myoblast; [3]): 2.972 | CKM expression fold change compared to vehicle (DM1 human myoblast; 96 h): 5.165 | MYH3 expression fold change compared to vehicle (DM1 human myoblast; 96 h): 14.833 | Half-life [2]: 2.85 h
